Data reported in patent publication US6518243B1, “Desleucyl glycopeptide antibiotics and methods of making same” (Trustees of Princeton University, priority 1999, dated 2003).

Legend:
E. faecalis (CL 4877) = assay: Zone of inhibition screen, 96 well agar array format; type: cell-based; set-up: scale not given here; details: zone of inhibition relative to 1 mg/ml stock solution of p-chlorobiphenylvancomycin
Summary of the method: (§1)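 Each compound was tested for antibacterial activity against a shared bacterial panel, with screening carried out on agar in a 96-well array.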

S. aureus (ATCC 29213) = assay: as above; type: cell-based; set-up: scale not given here
Summary of the method: as §1

[1] = zone of inhibition relative to 1 mg/ml stock solution of p-chlorobiphenylvancomycin
[2] = zone of inhibition relative to 1 mg/ml p-chlorobiphenylvancomycin

| SMILES | zone score, E. faecalis CL 4877 (E. faecalis (CL 4877)) | zone score, S. aureus ATCC 29213 (S. aureus (ATCC 29213); [1]) | zone score, S. aureus ATCC 29213 (S. aureus (ATCC 29213); [2]) |
| --- | --- | --- | --- |
| C#CCC(NC(C)=O)C(=O)NC1C(=O)NC(CC(N)=O)C(=O)NC2C(=O)NC3C(=O)NC(C(=O)NC(C(=O)O)c4cc(O)cc(O)c4-c4cc3ccc4O)C(O)c3ccc(c(Cl)c3)Oc3cc2cc(c3OC2OC(CO)C(O)C(O)C2OC2CC(C)(NCc3ccc(-c4ccc(Cl)cc4)cc3)C(O)C(C)O2)Oc2ccc(cc2Cl)C1O (mixture of isomers) [Compound 177] | 2 | 2 | – |
| CC1OC(OC2C(Oc3c4cc5cc3Oc3ccc(cc3Cl)C(O)C3NC(=O)C(NC(=O)C5NC(=O)C(CC(N)=O)NC(=O)C(NC(=O)C(N)CC(=O)OC(C)(C)C)C(O)c5ccc(c(Cl)c5)O4)c4ccc(O)c(c4)-c4c(O)cc(O)cc4C(C(=O)O)NC3=O)OC(CO)C(O)C2O)CC(C)(NCc2ccc(-c3ccc(Cl)cc3)cc2)C1O (stereo not drawn) [Compound 3] | 2 | 2 | – |
| C[C@H]1O[C@H](O[C@H]2[C@H](Oc3c4cc5cc3Oc3ccc(cc3Cl)[C@@H](O)[C@@H](NC(=O)C(N)CC3CCCCC3)C(=O)N[C@@H](CC(N)=O)C(=O)N[C@H]5C(=O)N[C@H]3C(=O)N[C@H](C(=O)N[C@@H](C(=O)O)c5cc(O)cc(O)c5-c5cc3ccc5O)[C@H](O)c3ccc(c(Cl)c3)O4)O[C@H](CO)[C@@H](O)[C@@H]2O)C[C@@](C)(NCc2ccc(-c3ccc(Cl)cc3)cc2)[C@H]1O (stereo partly drawn) [Compound 4] | 2 | 2 | – |
| CC(NCCCCC(N)C(=O)NC1C(=O)NC(CC(N)=O)C(=O)NC2C(=O)NC3C(=O)NC(C(=O)NC(C(=O)O)c4cc(O)cc(O)c4-c4cc3ccc4O)C(O)c3ccc(c(Cl)c3)Oc3cc2cc(c3OC2OC(CO)C(O)C(O)C2OC2CC(C)(NCc3ccc(-c4ccc(Cl)cc4)cc3)C(O)C(C)O2)Oc2ccc(cc2Cl)C1O)=C1C(=O)CC(C)(C)CC1=O (stereo not drawn) [Compound 39] | 2 | 2 | – |
| CC(=O)NCSCC(N)C(=O)NC1C(=O)NC(CC(N)=O)C(=O)NC2C(=O)NC3C(=O)NC(C(=O)NC(C(=O)O)c4cc(O)cc(O)c4-c4cc3ccc4O)C(O)c3ccc(c(Cl)c3)Oc3cc2cc(c3OC2OC(CO)C(O)C(O)C2OC2CC(C)(NCc3ccc(-c4ccc(Cl)cc4)cc3)C(O)C(C)O2)Oc2ccc(cc2Cl)C1O (stereo not drawn) [Compound 49] | 2 | 2 | – |
| CC1OC(OC2C(Oc3c4cc5cc3Oc3ccc(cc3Cl)C(O)C3NC(=O)C(NC(=O)C5NC(=O)C(CC(N)=O)NC(=O)C(NC(=O)C(N)CCCNC(=N)N)C(O)c5ccc(c(Cl)c5)O4)c4ccc(O)c(c4)-c4c(O)cc(O)cc4C(C(=O)O)NC3=O)OC(CO)C(O)C2O)CC(C)(NCc2ccc(-c3ccc(Cl)cc3)cc2)C1O (stereo not drawn) [Compound 90] | 2 | 2 | – |
| CC1OC(OC2C(Oc3c4cc5cc3Oc3ccc(cc3Cl)C(O)C(NC(=O)C3(C(N)=O)CC3)C(=O)NC(CC(N)=O)C(=O)NC5C(=O)NC3C(=O)NC(C(=O)NC(C(=O)O)c5cc(O)cc(O)c5-c5cc3ccc5O)C(O)c3ccc(c(Cl)c3)O4)OC(CO)C(O)C2O)CC(C)(NCc2ccc(-c3ccc(Cl)cc3)cc2)C1O (stereo not drawn) [Compound 98] | 2 | 2 | – |
| CC(=O)Nc1ccc(C(=O)NC2C(=O)NC(CC(N)=O)C(=O)NC3C(=O)NC4C(=O)NC(C(=O)NC(C(=O)O)c5cc(O)cc(O)c5-c5cc4ccc5O)C(O)c4ccc(c(Cl)c4)Oc4cc3cc(c4OC3OC(CO)C(O)C(O)C3OC3CC(C)(NCc4ccc(-c5ccc(Cl)cc5)cc4)C(O)C(C)O3)Oc3ccc(cc3Cl)C2O)cc1NC(C)=O (stereo not drawn) [Compound 104] | 2 | 2 | – |
| CC(=O)NCCCC(=O)NC1C(=O)NC(CC(N)=O)C(=O)NC2C(=O)NC3C(=O)NC(C(=O)NC(C(=O)O)c4cc(O)cc(O)c4-c4cc3ccc4O)C(O)c3ccc(c(Cl)c3)Oc3cc2cc(c3OC2OC(CO)C(O)C(O)C2OC2CC(C)(NCc3ccc(-c4ccc(Cl)cc4)cc3)C(O)C(C)O2)Oc2ccc(cc2Cl)C1O (stereo not drawn) [Compound 107] | 2 | 2 | – |
| CC(=O)NC(C)C(=O)NC1C(=O)NC(CC(N)=O)C(=O)NC2C(=O)NC3C(=O)NC(C(=O)NC(C(=O)O)c4cc(O)cc(O)c4-c4cc3ccc4O)C(O)c3ccc(c(Cl)c3)Oc3cc2cc(c3OC2OC(CO)C(O)C(O)C2OC2CC(C)(NCc3ccc(-c4ccc(Cl)cc4)cc3)C(O)C(C)O2)Oc2ccc(cc2Cl)C1O (stereo not drawn) [Compound 110] | 2 | 2 | – |
| CSCCC(NC(C)=O)C(=O)NC1C(=O)NC(CC(N)=O)C(=O)NC2C(=O)NC3C(=O)NC(C(=O)NC(C(=O)O)c4cc(O)cc(O)c4-c4cc3ccc4O)C(O)c3ccc(c(Cl)c3)Oc3cc2cc(c3OC2OC(CO)C(O)C(O)C2OC2CC(C)(NCc3ccc(-c4ccc(Cl)cc4)cc3)C(O)C(C)O2)Oc2ccc(cc2Cl)C1O (stereo not drawn) [Compound 115] | 2 | 2 | – |
| CC(=O)N1CC(O)CC1C(=O)NC1C(=O)NC(CC(N)=O)C(=O)NC2C(=O)NC3C(=O)NC(C(=O)NC(C(=O)O)c4cc(O)cc(O)c4-c4cc3ccc4O)C(O)c3ccc(c(Cl)c3)Oc3cc2cc(c3OC2OC(CO)C(O)C(O)C2OC2CC(C)(NCc3ccc(-c4ccc(Cl)cc4)cc3)C(O)C(C)O2)Oc2ccc(cc2Cl)C1O (stereo not drawn) [Compound 121] | 2 | 2 | – |
| CC1OC(OC2C(Oc3c4cc5cc3Oc3ccc(cc3Cl)C(O)C3NC(=O)C(NC(=O)C5NC(=O)C(CC(N)=O)NC(=O)C(NC(=O)CN(CCO)CCO)C(O)c5ccc(c(Cl)c5)O4)c4ccc(O)c(c4)-c4c(O)cc(O)cc4C(C(=O)O)NC3=O)OC(CO)C(O)C2O)CC(C)(NCc2ccc(-c3ccc(Cl)cc3)cc2)C1O (stereo not drawn) [Compound 130] | 2 | 2 | – |
| CC(NC(=O)OC(C)(C)C)C(=O)NCC(=O)NCC(=O)NC1C(=O)NC(CC(N)=O)C(=O)NC2C(=O)NC3C(=O)NC(C(=O)NC(C(=O)O)c4cc(O)cc(O)c4-c4cc3ccc4O)C(O)c3ccc(c(Cl)c3)Oc3cc2cc(c3OC2OC(CO)C(O)C(O)C2OC2CC(C)(NCc3ccc(-c4ccc(Cl)cc4)cc3)C(O)C(C)O2)Oc2ccc(cc2Cl)C1O (stereo not drawn) [Compound 131] | 2 | 2 | – |
| CC(NC(=O)OC(C)(C)C)C(=O)NCC(=O)N(C)CC(=O)NC1C(=O)NC(CC(N)=O)C(=O)NC2C(=O)NC3C(=O)NC(C(=O)NC(C(=O)O)c4cc(O)cc(O)c4-c4cc3ccc4O)C(O)c3ccc(c(Cl)c3)Oc3cc2cc(c3OC2OC(CO)C(O)C(O)C2OC2CC(C)(NCc3ccc(-c4ccc(Cl)cc4)cc3)C(O)C(C)O2)Oc2ccc(cc2Cl)C1O (stereo not drawn) [Compound 132] | 2 | 2 | – |
| CC1OC(OC2C(Oc3c4cc5cc3Oc3ccc(cc3Cl)C(O)C3NC(=O)C(NC(=O)C5NC(=O)C(CC(N)=O)NC(=O)C(NC(=O)CCC(NC(=O)OC(C)(C)C)C(N)=O)C(O)c5ccc(c(Cl)c5)O4)c4ccc(O)c(c4)-c4c(O)cc(O)cc4C(C(=O)O)NC3=O)OC(CO)C(O)C2O)CC(C)(NCc2ccc(-c3ccc(Cl)cc3)cc2)C1O (stereo not drawn) [Compound 137] | 2 | 2 | – |
| CC1OC(OC2C(Oc3c4cc5cc3Oc3ccc(cc3Cl)C(O)C3NC(=O)C(NC(=O)C5NC(=O)C(CC(N)=O)NC(=O)C(NC(=O)CNC(=O)CNC(=O)CNC(=O)OC(C)(C)C)C(O)c5ccc(c(Cl)c5)O4)c4ccc(O)c(c4)-c4c(O)cc(O)cc4C(C(=O)O)NC3=O)OC(CO)C(O)C2O)CC(C)(NCc2ccc(-c3ccc(Cl)cc3)cc2)C1O (stereo not drawn) [Compound 139] | 2 | 2 | – |
| CC1OC(OC2C(Oc3c4cc5cc3Oc3ccc(cc3Cl)C(O)C3NC(=O)C(NC(=O)C5NC(=O)C(CC(N)=O)NC(=O)C(NC(=O)C(CCC(N)=O)NC(=O)OC(C)(C)C)C(O)c5ccc(c(Cl)c5)O4)c4ccc(O)c(c4)-c4c(O)cc(O)cc4C(C(=O)O)NC3=O)OC(CO)C(O)C2O)CC(C)(NCc2ccc(-c3ccc(Cl)cc3)cc2)C1O (stereo not drawn) [Compound 141] | 2 | 2 | – |
| CC1OC(OC2C(Oc3c4cc5cc3Oc3ccc(cc3Cl)C(O)C(NC(=O)C(O)C(O)C(O)C(O)CO)C(=O)NC(CC(N)=O)C(=O)NC5C(=O)NC3C(=O)NC(C(=O)NC(C(=O)O)c5cc(O)cc(O)c5-c5cc3ccc5O)C(O)c3ccc(c(Cl)c3)O4)OC(CO)C(O)C2O)CC(C)(NCc2ccc(-c3ccc(Cl)cc3)cc2)C1O (stereo not drawn) [Compound 157] | 2 | 2 | – |
| CC1OC(OC2C(Oc3c4cc5cc3Oc3ccc(cc3Cl)[C@@H](O)[C@@H](NC(=O)[C@@H](CCCNC(=N)N)NC(N)=O)C(=O)N[C@@H](CC(N)=O)C(=O)N[C@H]5C(=O)NC3C(=O)N[C@H](C(=O)N[C@@H](C(=O)O)c5cc(O)cc(O)c5-c5cc3ccc5O)[C@H](O)c3ccc(c(Cl)c3)O4)OC(CO)C(O)C2O)CC(C)(NCc2ccc(-c3ccc(Cl)cc3)cc2)C1O (stereo partly drawn) [Compound 187] | 2 | 2 | – |
| CC1OC(OC2C(Oc3c4cc5cc3Oc3ccc(cc3Cl)C(O)C3NC(=O)C(NC(=O)C5NC(=O)C(CC(N)=O)NC(=O)C(NC(=O)C(=O)c5ccco5)C(O)c5ccc(c(Cl)c5)O4)c4ccc(O)c(c4)-c4c(O)cc(O)cc4C(C(=O)O)NC3=O)OC(CO)C(O)C2O)CC(C)(NCc2ccc(-c3ccc(Cl)cc3)cc2)C1O (stereo not drawn) [Compound 239] | – | – | 2 |
| CC1OC(OC2C(Oc3c4cc5cc3Oc3ccc(cc3Cl)C(O)C(NC(=O)C(F)(F)C(F)(F)C(F)(F)C(F)(F)F)C(=O)NC(CC(N)=O)C(=O)NC5C(=O)NC3C(=O)NC(C(=O)NC(C(=O)O)c5cc(O)cc(O)c5-c5cc3ccc5O)C(O)c3ccc(c(Cl)c3)O4)OC(CO)C(O)C2O)CC(C)(NCc2ccc(-c3ccc(Cl)cc3)cc2)C1O (stereo not drawn) [Compound 311] | – | – | 2 |
